Where two headings read alike, the source gives them in different places. Non-standard residues stand in square brackets, D forms with d. Residues, ends and D or L forms follow the SMILES beside them. ξ: configuration not given here. *: point of attachment. ξR = N=C(N)NCCCC(N)C(=O)O; βNA = c1ccc2cc(N*)ccc2c1
Columns and labels:
[1] = test system: S. aureus NorA-, wild type, and NorA+; assay: Photodynamic inactivation (PDI), light-dose dependent phototoxicity; type: cell-based, Staphylococcus aureus; conditions: 10 μM; for light dose by which strain is eliminated: NorA knockout strain, 635-nm light 100 mWcm^-2; for light dose by which strain is eliminated / logs of killing: 30 min; for logs less killing than wild-type: NorA overexpression strain, 635-nm light; for overall order of efficiency of killing: S. aureus NorA strains; for logs less killing compared to wild-type: NorA overexpressing strain; for logs of killing: wild-type strain
Description: (§1) A polylysine-chlorine6 conjugate (pL-ce6), and Rose Bengal (RB) (Sigma-Aldrich) were used as non-phenothiazinium-based PS (FIG. 3). Stock solutions were prepared in water at a concentration of 2-mM and stored for a maximum of 2 weeks at 4° C. in the dark before use. Spectra of stock solutions diluted 140-280 fold in methanol were recorded on an UV-visible spectroscopy system (Waldbronn, Germany). A non-coherent light source with interchangeable fiber bundles (LC122, LumaCare, London, UK) was employed. Thirty-nm band pass filters at ranges 540±15 nm for RB, 635±15 nm for TBO, and DMMB, and 660±15 nm for MB and pLce6 were used. The total power output provided out of the fiber bundle ranged from 300-700 mW. The spot was arranged to give an irradiance of 100 mW/cm^2.
(§2) Bacterial suspensions in PBS (initial concentration 10^8 cells mL^−1) were incubated with PS in the dark at room temperature for 30 minutes at concentrations varying from 1-μM to 300-μM. The cell suspensions were centrifuged at 12000 rpm and then washed twice with sterile PBS. The bacterial suspensions were placed in wells of 96 well micro titer plates (Fisher Scientific) and illuminated with appropriate light at room temperature. Fluences ranged from 0 to 20 Jcm^−2 at a fluence rate of 100 mWcm^−2. During illumination, aliquots of […] were taken to determine the colony-forming units. The contents of the wells were mixed before sampling. The aliquots were serially diluted 10-fold in PBS to give dilutions of 10^−1-10^−6 times the original concentrations and were streaked horizontally on square BHI agar plates as described by Jett et al (1997). This allowed a maximum of seven logs of killing to be measured. Plates were incubated at 37° C. overnight. Two types of control conditions were used: illumination in the absence of photosensitizer and incubation with photosensitizer in the dark.
The three isogenic strains of S. aureus were incubated with 10 μM MB for 30 minutes and then washed free of unbound dye by centrifugation and resuspension in PBS and illuminated with 100 mWcm^−2 660-nm light, and the survival fractions determined as described above.
To establish the recognition of phenothiazinium dyes as a class by NorA, the experiments described in FIG. 4 were repeated with the phenothiazinium compounds TBO and DMMB. Incubation with the photosensitizer was for 30 min followed by a wash. Bacteria were then illuminated with 100 mWcm^−2 635-nm light for both TBO and DMMB. The results shown in FIGS. 7a and 7b show a similar pattern to the susceptibilities as was found for MB. The NorA knockout strain is eliminated by 1 J/cm2 in the case of TBO and by 0.5 J/cm2 in the case of DMMB. […]

[2] = test system: P. aeruginosa PAO1; type: cell-based, Pseudomonas aeruginosa; conditions: inhibitor 10 ug/ml with TBO 250 μM, 30 min, wash; 660-nm light 100 mWcm^-2
[3] = test system: P. aeruginosa MexAB-, wild type and MexAB+; type: cell-based, Pseudomonas aeruginosa; conditions: wild-type strain; 300 μM; after 20 J/cm2
Description: A polylysine-chlorine6 conjugate (pL-ce6), and Rose Bengal (RB) (Sigma-Aldrich) were used as non-phenothiazinium-based PS (FIG. 3). Stock solutions were prepared in water at a concentration of 2-mM and stored for a maximum of 2 weeks at 4° C. in the dark before use. Spectra of stock solutions diluted 140-280 fold in methanol were recorded on an UV-visible spectroscopy system (Waldbronn, Germany). A non-coherent light source with interchangeable fiber bundles (LC122, LumaCare, London, UK) was employed. […] The total power output provided out of the fiber bundle ranged from 300-700 mW. The spot was arranged to give an irradiance of 100 mW/cm^2.
Bacterial suspensions in PBS (initial concentration 10^8 cells mL^−1) were incubated with PS in the dark at room temperature for 30 minutes at concentrations varying from 1-μM to 300-μM. The cell suspensions were centrifuged at 12000 rpm and then washed twice with sterile PBS. The bacterial suspensions were placed in wells of 96 well micro titer plates (Fisher Scientific) and illuminated with appropriate light at room temperature. Fluences ranged from 0 to 20 Jcm^−2 at a fluence rate of 100 mWcm^−2. During illumination, aliquots of 10 were taken to determine the colony-forming units. The contents of the wells were mixed before sampling. […] This allowed a maximum of seven logs of killing to be measured. […]

[4] = test system: E. coli wild type and TolC-; type: cell-based, Escherichia coli
Description: as §1, §2
It was necessary to use higher overall PDI doses to kill the Gram-negative E. coli compared to the Gram-positive S. aureus. A concentration of MB of 50 μM was selected with the same 30-minute incubation and wash by centrifugation, together with light doses up to 20 J/cm^2.

Cc1cc(N(C)C)cc2[s+]c3cc(N(C)C)cc(C)c3nc12 [DMMB, 1,9-dimethylmethylene blue]
light dose by which strain is eliminated ([1]; wash): ≤ 0.5 J/cm2
logs less killing than wild-type [1]: roughly 2 logs
overall order of efficiency of killing [1]: DMMB>TBO>MB

Cc1cc2nc3ccc(N(C)C)cc3[s+]c2cc1N.[Cl-] [TBO, Toluidine blue O]
light dose by which strain is eliminated ([1]; wash): ≤ 1 J/cm2
logs less killing than wild-type [1]: roughly 2 logs
overall order of efficiency of killing [1]: DMMB>TBO>MB

O=C1OC2(c3cc(I)c(O)c(I)c3Oc3c2cc(I)c(O)c3I)c2c(Cl)c(Cl)c(Cl)c(Cl)c21 [RB, Rose Bengal]
differences in killing between the three NorA phenotypes ([1]; wash, 540-nm light 100 mWcm^-2): no differences in killing

NC(N)=NCCCC(NC(=O)[C@@H](N)Cc1ccccc1)C(=O)Nc1ccc2ccccc2c1 (stereo partly drawn) [MC207110] (H-Phe-[ξR]-βNA)
logs of killing [2]: 5 logs

CN(C)c1ccc2nc3ccc(=[N+](C)C)cc-3sc2c1 [MB, methylene blue]
logs of killing [3]: 5 logs
killing ([1]; NorA knock-out, 660-nm light, after 1 J/cm^2): complete killing
logs less killing compared to wild-type ([1]; 660-nm light, at 1 J/cm^2): 1 log
logs less killing compared to wild-type ([1]; 660-nm light, at 2 J/cm^2): 2 logs
logs less killing compared to wild-type ([1]; 660-nm light, at 4 J/cm^2): 3 logs
logs of killing ([1]; wash, 660-nm light 100 mWcm^-2, after 1 J/cm^2): 3 logs
logs of killing ([1]; wash, 660-nm light, after 2 J/cm^2): 5 logs
logs of killing ([1]; wash, 660-nm light, after 4 J/cm^2): 7 logs
logs more killing than wild-type ([4]; TolC knock-out mutant, 50 μM, 30 min, wash, at 5 J/cm^2): 2 logs
logs more killing than wild-type ([4]; TolC knock-out mutant, 50 μM, at 10 J/cm^2): three
killing ([4]; TolC knock-out mutant, 50 μM, light doses higher than 10 J/cm^2 (up to 20 J/cm^2)): totally eliminated
killing ([4]; TolC knock-out, 250 μM, after 20 J/cm^2 (data not shown)): totally eliminated
killing ([4]; wild-type, 250 μM, after 20 J/cm^2 (data not shown)): totally eliminated
